In ChEMBL document CHEMBL1201862, “PubChem BioAssay data set” (2004):
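Following 48 hours of exposure in 96-well plates, responses at five concentrations were used to interpolate endpoints linearly. Here, GI50 denotes the concentration required for 50% inhibition of growth.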 Activity calls are given as the source filed them. No stated cut-off is given here; in the data, active = GI50 up to about 1.1 µM and inactive = higher.

Legend:
Experiment in all cases: NCI anticancer screen, dose series, 48 h
[1] = system: 786-0
[2] = system: A549
[3] = system: ACHN
[4] = system: BT-549
[5] = system: CAKI-1
[6] = system: CCRF-CEM
[7] = system: COLO 205
[8] = system: DU-145
[9] = system: EKVX
[10] = system: HCC 2998
[11] = system: HCT-116
[12] = system: HCT-15
[13] = system: HL-60
[14] = system: HOP-62
[15] = system: HOP-92
[16] = system: HT-29
[17] = system: IGROV-1
[18] = system: LOX IMVI
[19] = system: M14
[20] = system: MCF7
[21] = system: MDA-MB-231
[22] = system: MDA-MB-435
[23] = system: MDA-N
[24] = system: MOLT-4
[25] = system: NCI-H226
[26] = system: NCI-H23
[27] = system: OVCAR-3
[28] = system: OVCAR-4
[29] = system: OVCAR-5
[30] = system: PC-3
[31] = system: RPMI-8226
[32] = system: RXF 393
[33] = system: SF-295
[34] = system: SF-539
[35] = system: SK-MEL-28
[36] = system: SK-MEL-2
[37] = system: SK-MEL-5
[38] = system: SK-OV-3
[39] = system: SN12C
[40] = system: SNB-19
[41] = system: SR
[42] = system: T47D
[43] = system: TK-10
[44] = system: U-251
[45] = system: UACC-257
[46] = system: UACC-62
[47] = system: UO-31
[48] = system: A498
[49] = system: Hs-578T
[50] = system: K562
[51] = system: KM12
[52] = system: Malme-3M
[53] = system: NCI-H460
[54] = system: NCI-H522
[55] = system: NCI/ADR-RES
[56] = system: OVCAR-8
[57] = system: SF-268
[58] = system: SNB-75
[59] = system: SW-620

Measured: GI50

CCOC(=O)C1CC(O)C(=O)N1C (stereo not drawn)
inactive: [1] > 100 µM | [2] > 100 µM | [3] > 100 µM | [4] > 100 µM | [5] > 100 µM | [6] > 100 µM | [7] > 100 µM | [8] > 100 µM | [9] > 100 µM | [10] > 100 µM | [11] > 100 µM | [13] > 100 µM | [14] > 100 µM | [15] > 100 µM | [16] > 100 µM | [17] > 100 µM | [18] > 100 µM | [19] > 100 µM | [20] > 100 µM | [21] > 100 µM | [22] > 100 µM | [23] > 100 µM | [24] > 100 µM | [25] > 100 µM | [26] > 100 µM | [27] > 100 µM | [28] > 100 µM | [29] > 100 µM | [30] > 100 µM | [31] > 100 µM | [32] > 100 µM | [33] > 100 µM | [34] > 100 µM | [35] > 100 µM | [36] > 100 µM | [37] > 100 µM | [38] > 100 µM | [39] > 100 µM | [40] > 100 µM | [41] > 100 µM | [42] > 100 µM | [43] > 100 µM | [44] > 100 µM | [45] > 100 µM | [46] > 100 µM | [47] > 100 µM
> 100 µM: [12]

c1ccc2c(c1)SCCC2NC1=NCCO1 (stereo not drawn)
> 100 µM: [12]
inactive: [1] > 100 µM | [48] > 100 µM | [2] > 100 µM | [3] > 100 µM | [5] > 100 µM | [6] > 100 µM | [7] > 100 µM | [8] > 100 µM | [9] > 100 µM | [10] > 100 µM | [11] > 100 µM | [13] > 100 µM | [14] > 100 µM | [16] 89.5 µM | [49] > 100 µM | [17] > 100 µM | [50] > 100 µM | [51] > 100 µM | [18] > 100 µM | [19] > 100 µM | [20] > 100 µM | [21] > 100 µM | [22] > 100 µM | [23] > 100 µM | [24] > 100 µM | [52] > 100 µM | [25] > 100 µM | [26] > 100 µM | [53] > 100 µM | [54] > 100 µM | [55] > 100 µM | [27] > 100 µM | [28] > 100 µM | [29] > 100 µM | [56] > 100 µM | [30] > 100 µM | [31] > 100 µM | [32] > 100 µM | [57] > 100 µM | [33] > 100 µM | [34] > 100 µM | [35] > 100 µM | [36] > 100 µM | [37] > 100 µM | [38] > 100 µM | [39] > 100 µM | [40] > 100 µM | [58] > 100 µM | [41] > 100 µM | [59] > 100 µM | [42] > 100 µM | [43] > 100 µM | [44] > 100 µM | [46] > 100 µM | [47] > 100 µM
